{"source": "paper PMC4003287", "about": "“Fast and economic immobilization methods described for non-commercial Pseudomonas lipases” (BMC Biotechnology, 2014)", "key": {"LipC": {"target": "T1, LipC (Pseudomonas sp. 42A2, UniProt B3GVV9)", "T1 construct": "secreted lipase, co-expressed with foldase gene lipH of 42A2 in pBBR1MCS, host P. aeruginosa PABST7.1 (PAO1 lipA lipH deletion); crude culture supernatant, adsorbed on EP100, MP1000 or Celite 545", "T1 sequence (B3GVV9 24-309)": "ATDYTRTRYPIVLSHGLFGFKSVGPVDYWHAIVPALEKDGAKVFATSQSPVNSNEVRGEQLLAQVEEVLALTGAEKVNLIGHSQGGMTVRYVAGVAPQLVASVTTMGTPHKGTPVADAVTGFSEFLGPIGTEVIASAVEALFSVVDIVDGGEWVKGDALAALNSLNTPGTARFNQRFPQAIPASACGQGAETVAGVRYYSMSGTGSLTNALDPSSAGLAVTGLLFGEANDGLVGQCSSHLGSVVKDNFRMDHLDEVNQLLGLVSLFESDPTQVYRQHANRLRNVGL", "assay": "transesterification to FAMEs, TLC, immobilized crude enzyme", "type": "biochemical", "conditions": "methanol 15% w/w, water 10% w/w, room temperature, 24 h; triolein of 65% purity (with di- and monolein); FAMEs seen with EP100 and MP1000 preparations"}, "LipA": {"target": "T2, LipA (Pseudomonas sp. 42A2, UniProt B3GVV8)", "T2 construct": "secreted lipase, co-expressed with foldase gene lipH of 42A2 in pBBR1MCS, host P. aeruginosa PABST7.1 (PAO1 lipA lipH deletion); crude culture supernatant, adsorbed on EP100, MP1000 or Celite 545", "T2 sequence (B3GVV8 27-311)": "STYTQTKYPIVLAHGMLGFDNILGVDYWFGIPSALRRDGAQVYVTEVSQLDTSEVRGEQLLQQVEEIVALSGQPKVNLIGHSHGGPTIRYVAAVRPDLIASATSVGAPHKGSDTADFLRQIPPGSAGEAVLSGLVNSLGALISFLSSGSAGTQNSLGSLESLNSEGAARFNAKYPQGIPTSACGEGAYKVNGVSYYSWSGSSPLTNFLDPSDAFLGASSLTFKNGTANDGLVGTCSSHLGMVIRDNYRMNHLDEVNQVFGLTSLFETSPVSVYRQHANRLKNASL", "assay": "transesterification to FAMEs, TLC, immobilized crude enzyme", "type": "biochemical", "conditions": "methanol 15% w/w, water 10% w/w, 30°C, 24 h; triolein of 65% purity (with di- and monolein); FAMEs seen with EP100 and Celite 545 preparations"}}, "data": [{"compound": "CCCCCCCC/C=C\\CCCCCCCC(=O)OCC(COC(=O)CCCCCCC/C=C\\CCCCCCCC)OC(=O)CCCCCCC/C=C\\CCCCCCCC", "note": "[triolein]", "values": [{"measurement": "transesterification to FAMEs, TLC, immobilized crude enzyme", "setting": "LipC", "value": "LipA, LipC and LipCmut produced a visible FAMEs spot when analyzed by TLC"}, {"measurement": "transesterification to FAMEs, TLC, immobilized crude enzyme", "setting": "LipA", "value": "LipA, LipC and LipCmut produced a visible FAMEs spot when analyzed by TLC"}]}]}
